Reference: paper PMC7139656, “The Landscape of the Anti-Kinase Activity of the IDH1 Inhibitors” (Cancers, 2020)

Legend:
[1] = test system: mutant IDH1 (2-HG production) in K562 cells; experiment: Mutant IDH1 activity - D-2-hydroxyglutarate production in K562 cells; type: cell-based, human; details: 24-h incubation; for D-2-HG level after treatment (decrease to): 30 μM
Method: The K562 and U-251 cells were seeded in 3-cm Petri dishes (Nunc) at a density of 0.5 × 10^6 cells/well and incubated at 37 °C for 24 h. […] After a 24-h treatment, the assays were performed using a D-2-Hydroxyglutarate Assay Kit (Abcam) according to the manufacturer’s instructions. Briefly, 25 μL of each cell lysate was transferred onto 96-well plates. Internal and external standards (containing 1 mM D2HG) were also prepared. Then, a freshly prepared reaction mix containing D2HG Assay Buffer, D2HG Enzyme and D2HG Substrate Mix was added to each well. Reaction mixes with the cell lysates were incubated for 60 min at 37 °C in the dark. The optical densities of the samples were analyzed at 450 nm using a Synergy 4 multi-plate reader. The experiments were performed at least four times. The D-2-Hydroxyglutarate concentration is expressed as nM/μL.

ABL1 recombinant protein = test system: ABL1 recombinant protein; parameters: method as in PMID 19679652; details: cited from earlier work
IDH1 R132H = details: cited from earlier work
ABL1 native = target: T1, ABL1 native (Homo sapiens, UniProt P00519); experiment: Tyrosine kinase inhibition in vitro (Kinase Selectivity TK-2 Profiling System, ADP-Glo); type: biochemical; details: for inhibition at 0.5 µM: compound at 0.5 μM, read-out: Inhibitory Effect of the Non-Receptor Tyrosine Kinase Activity, ABL1 native
T1 construct: purchased Promega
Method: (§1) The inhibition of the tyrosine kinases by the tested compounds was measured using the Kinase Selectivity TK-2 Profiling Systems (Promega) as was previously reported. Briefly, the kinases (ABL1; BRK; BTK; CSK; Fyn A; Lck; Lyn B; Src) and substrate/co factor strips were prepared according to the manufacturer’s instructions. The compounds being tested were dissolved in DMSO to a concentration of 100 μM, which was then used as the stock solution to prepare the 0.5 μM final concentration in a 1x Kinase Reaction Buffer (40 mM Tris – pH 7.5; 20 mM MgCl2; 0.1 mg/mL BSA; 50 μM DTT). The experiment began with transferring 1 μl of the prepared solutions of the tested compounds onto a 384-well white plate that was designed for luminescence (Corning). Then, 2 μL of the kinases from the eight-well strip were added into each well and the plate was incubated for 10 min at room temperature (RT), after which 2 μL of the substrates from the eight-well substrate/co-factor strip were added to each well and the plate was left at RT for 1 h. Solutions of 1x Kinase Reaction Buffer with 5% vehicle (DMSO) were used as the negative controls without an inhibitor or enzymes. The activity of each kinase was determined using an ADP-Glo Kinase Assay (Promega). Firstly, in order to stop the reaction, 5 μL of ADP-Glo reagent was added to each well and the plate was incubated for 40 min at RT. Afterwards, 10 μL of the Kinase Detection Reagent was added to each well and the luminescence was measured in a Synergy 4 multi-plate reader following a 30-min incubation at RT. […] The data are expressed as the percentage of the inhibition of tyrosine kinase after treatment with the tested compounds.

ABL1 T315I = target: T2, ABL1 T315I (Homo sapiens, UniProt P00519, T315I); experiment: ABL (T315I) Kinase Assay (ADP-Glo); type: biochemical; details: for inhibition at 0.5 µM: compound at 0.5 μM, read-out: Inhibitory Effect of the Non-Receptor Tyrosine Kinase Activity, ABL1 T315I
T2 construct: purchased Promega
Method: as §1
Briefly, the solutions of the compounds being tested at various concentrations were prepared in a 1x Kinase Reaction Buffer. Firstly, 1 μl of the solutions of the tested compounds or vehicle – 5% DMSO (as the control without an inhibitor) were added onto a 384-well low volume white plate. […] After 10 min of incubation at RT, 2 μL of the substrate/ATP mixture was added to each well and incubated for 1h at RT. The luminescence of the kinase activity after treatment with the tested compounds was measured using an ADP-Glo Kinase Assay as was described above. The experiments were performed three times and the results are presented as the IC50 values, which were calculated using GraphPad Prism 7.

BRK = target: T3, BRK (Homo sapiens, UniProt Q13882); experiment: Tyrosine kinase inhibition in vitro (TK-2 panel, ADP-Glo); type: biochemical; details: compound at 0.5 μM; read-out: Inhibitory Effect of the Non-Receptor Tyrosine Kinase Activity, BRK
T3 construct: purchased Promega
Method: as §1

BTK = target: T4, BTK (Homo sapiens, UniProt Q06187); experiment: as above; type: biochemical; details: for inhibition at 0.5 µM: compound at 0.5 μM, read-out: Inhibitory Effect of the Non-Receptor Tyrosine Kinase Activity, BTK
T4 construct: purchased Promega
Method: as §1

CSK = target: T5, CSK (Homo sapiens, UniProt P41240); experiment: as above; type: biochemical; details: compound at 0.5 μM; read-out: Inhibitory Effect of the Non-Receptor Tyrosine Kinase Activity, CSK
T5 construct: purchased Promega
Method: as §1

Fyn A = target: T6, Fyn A (Homo sapiens, UniProt P06241); experiment: as above; type: biochemical; details: for inhibition at 0.5 µM: compound at 0.5 μM, read-out: Inhibitory Effect of the Non-Receptor Tyrosine Kinase Activity, Fyn A
T6 construct: purchased Promega
Method: as §1

Lck = target: T7, Lck (Homo sapiens, UniProt P06239); experiment: as above; type: biochemical; details: compound at 0.5 μM; read-out: Inhibitory Effect of the Non-Receptor Tyrosine Kinase Activity, Lck
T7 construct: purchased Promega
Method: as §1

Src = target: T8, Src (Homo sapiens, UniProt P12931); experiment: as above; type: biochemical; details: compound at 0.5 μM; read-out: Inhibitory Effect of the Non-Receptor Tyrosine Kinase Activity, Src
T8 construct: purchased Promega
Method: as §1

Lyn B = target: T9, Lyn B (Homo sapiens, UniProt P07948); experiment: as above; type: biochemical; details: for inhibition at 0.5 µM: compound at 0.5 μM, read-out: Inhibitory Effect of the Non-Receptor Tyrosine Kinase Activity, Lyn B
T9 construct: purchased Promega

HCT 116 p53+/+ = experiment: Cytotoxicity / antiproliferative activity, MTS test; type: cell-based; details: Homo sapiens, 72-h incubation
Method: (§2) M. Rusin from the Maria Sklodowska-Curie Memorial Cancer Centre and Institute of Oncology in Gliwice, Poland. […] G. Kramer-Marek from The Institute of Cancer Research in London, United Kingdom. The pancreatic cell line PANC-1 and the human chronic myelogenous leukemia cell line K562 were purchased from Sigma-Aldrich. […] All of these cell lines were grown under standard conditions at 37 °C in a 5% CO2 humidified atmosphere. Prior to beginning the experiments, all of the cell lines were subjected to routine mycoplasma testing with specific Mycoplasma primers using the PCR technique.
(§3) The exponentially growing cells for all of the cell lines were seeded in 96-well plates (Nunc) at a density of 5000 cells/well and incubated at 37 °C for 24 h. The assay was performed following a 72-h incubation with the various concentrations of the compounds that were being tested. Then, 20 µL of CellTiter 96®AQueous One Solution-MTS (Promega) solution was added to each well (with 100 µL DMEM without phenol red) and incubated for 1 h at 37 °C. The optical densities of the samples were analyzed at 490 nm using a multi-plate reader (Synergy 4, BioTek). The results are expressed as the percentage of the control and were calculated as the inhibitory concentration (IC50) values using GraphPad Prism 7. Each individual compound was tested in triplicate in a single experiment with each experiment being repeated five times.

HCT 116 p53-/- = experiment: as above; type: cell-based; details: Homo sapiens, 72-h incubation
Method: as §2, §3

K562 = experiment: as above; type: cell-based; details: Homo sapiens, 72-h incubation
Method: as §2, §3

MCF-7 = experiment: as above; type: cell-based; details: Homo sapiens, MCF7, 72-h incubation
Method: as §2, §3

PANC-1 = experiment: as above; type: cell-based; details: Homo sapiens, 72-h incubation
Method: as §2, §3

U-251 = experiment: as above; type: cell-based; details: Homo sapiens, 72-h incubation
Method: as §2, §3

ABL1 enzyme = ABL1 enzyme (Homo sapiens, UniProt P00519); experiment: Pharmacological synergy on the ABL enzyme model (TOS inhibitors and axitinib, ABL1 Kinase Assay, Chou-Talalay); details: for Combination index [CI]: combination with axitinib, for Fa = 0.9, CI < 1 synergy, CompuSyn
Method: The experiments were performed at least three times. The synergy was calculated according to the Chou-Talay method (CompuSyn software) [33, 70]. Briefly, the concentration range was adjusted to cover the specified IC50 value against the ABL1 enzyme for each inhibitor.

wild-type IDH1 = details: cited from earlier work

T6 sequence (P06241 whole entry): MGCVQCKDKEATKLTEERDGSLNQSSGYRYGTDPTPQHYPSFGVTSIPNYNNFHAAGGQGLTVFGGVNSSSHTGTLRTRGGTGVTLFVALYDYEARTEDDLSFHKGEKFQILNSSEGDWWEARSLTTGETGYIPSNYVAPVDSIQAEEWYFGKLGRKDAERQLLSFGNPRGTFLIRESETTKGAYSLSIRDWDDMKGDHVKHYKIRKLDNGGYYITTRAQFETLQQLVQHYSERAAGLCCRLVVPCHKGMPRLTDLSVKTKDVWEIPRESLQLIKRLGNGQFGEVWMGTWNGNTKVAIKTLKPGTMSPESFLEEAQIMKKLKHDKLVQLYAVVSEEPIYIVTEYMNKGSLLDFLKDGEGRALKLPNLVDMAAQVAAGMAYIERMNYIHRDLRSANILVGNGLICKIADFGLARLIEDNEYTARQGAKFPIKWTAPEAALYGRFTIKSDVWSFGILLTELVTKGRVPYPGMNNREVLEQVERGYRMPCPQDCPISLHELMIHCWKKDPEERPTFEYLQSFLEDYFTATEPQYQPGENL
T9 sequence (P07948 1-491 isoform P07948-2): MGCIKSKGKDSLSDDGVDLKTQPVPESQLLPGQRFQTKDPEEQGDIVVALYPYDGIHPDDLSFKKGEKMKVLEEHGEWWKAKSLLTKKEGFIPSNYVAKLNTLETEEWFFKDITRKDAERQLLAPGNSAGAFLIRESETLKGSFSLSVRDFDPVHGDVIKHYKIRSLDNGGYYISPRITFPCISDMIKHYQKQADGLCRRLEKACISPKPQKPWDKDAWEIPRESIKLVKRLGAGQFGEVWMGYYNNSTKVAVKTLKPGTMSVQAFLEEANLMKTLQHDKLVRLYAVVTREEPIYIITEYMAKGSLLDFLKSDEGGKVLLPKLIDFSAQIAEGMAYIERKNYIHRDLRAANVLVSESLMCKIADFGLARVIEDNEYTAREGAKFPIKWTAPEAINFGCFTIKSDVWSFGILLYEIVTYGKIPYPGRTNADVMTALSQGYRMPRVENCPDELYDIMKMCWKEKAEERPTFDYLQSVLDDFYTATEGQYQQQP
T4 sequence (Q06187 whole entry): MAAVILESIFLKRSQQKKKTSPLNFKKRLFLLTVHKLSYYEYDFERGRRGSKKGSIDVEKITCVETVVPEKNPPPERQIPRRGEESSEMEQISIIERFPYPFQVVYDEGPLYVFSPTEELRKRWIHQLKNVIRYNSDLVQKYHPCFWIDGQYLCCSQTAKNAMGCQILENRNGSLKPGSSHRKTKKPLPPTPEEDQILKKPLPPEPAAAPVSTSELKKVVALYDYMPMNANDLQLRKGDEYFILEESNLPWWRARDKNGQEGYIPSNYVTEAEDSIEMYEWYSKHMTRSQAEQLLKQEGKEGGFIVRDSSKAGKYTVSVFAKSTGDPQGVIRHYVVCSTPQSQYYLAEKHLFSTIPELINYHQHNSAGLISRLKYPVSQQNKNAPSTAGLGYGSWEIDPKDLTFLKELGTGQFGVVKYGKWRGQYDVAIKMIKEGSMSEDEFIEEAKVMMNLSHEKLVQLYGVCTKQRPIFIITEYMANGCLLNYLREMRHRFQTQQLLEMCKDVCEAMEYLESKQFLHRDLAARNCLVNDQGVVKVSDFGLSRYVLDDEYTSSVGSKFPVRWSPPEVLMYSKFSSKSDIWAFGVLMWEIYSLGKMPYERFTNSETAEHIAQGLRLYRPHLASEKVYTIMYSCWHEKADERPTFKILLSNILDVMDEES
T7 sequence (P06239 whole entry): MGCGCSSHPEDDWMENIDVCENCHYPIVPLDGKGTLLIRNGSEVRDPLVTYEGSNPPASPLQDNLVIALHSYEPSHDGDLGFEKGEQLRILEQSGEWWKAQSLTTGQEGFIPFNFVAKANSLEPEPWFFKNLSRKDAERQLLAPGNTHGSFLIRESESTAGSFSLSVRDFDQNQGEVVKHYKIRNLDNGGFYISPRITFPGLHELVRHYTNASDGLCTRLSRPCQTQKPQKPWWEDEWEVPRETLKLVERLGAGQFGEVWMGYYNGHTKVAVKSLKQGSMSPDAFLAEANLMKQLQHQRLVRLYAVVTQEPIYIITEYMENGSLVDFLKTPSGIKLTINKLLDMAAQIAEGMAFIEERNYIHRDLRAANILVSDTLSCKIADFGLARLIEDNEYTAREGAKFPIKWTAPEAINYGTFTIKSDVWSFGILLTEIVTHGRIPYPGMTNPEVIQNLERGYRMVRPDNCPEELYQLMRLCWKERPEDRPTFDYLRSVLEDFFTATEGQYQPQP
T3 sequence (Q13882 whole entry): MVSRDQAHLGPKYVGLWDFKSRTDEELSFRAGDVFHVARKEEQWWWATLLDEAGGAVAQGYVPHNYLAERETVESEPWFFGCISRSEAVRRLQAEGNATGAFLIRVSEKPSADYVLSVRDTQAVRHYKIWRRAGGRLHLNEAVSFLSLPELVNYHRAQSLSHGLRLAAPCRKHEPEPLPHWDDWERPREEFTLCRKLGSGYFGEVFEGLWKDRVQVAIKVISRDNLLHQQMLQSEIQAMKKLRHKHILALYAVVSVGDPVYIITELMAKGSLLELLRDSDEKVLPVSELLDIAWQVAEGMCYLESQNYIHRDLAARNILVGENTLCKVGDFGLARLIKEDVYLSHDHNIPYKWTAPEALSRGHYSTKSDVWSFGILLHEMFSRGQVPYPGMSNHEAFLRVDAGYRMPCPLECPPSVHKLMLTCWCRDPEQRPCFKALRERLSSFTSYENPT
T8 sequence (P12931 whole entry): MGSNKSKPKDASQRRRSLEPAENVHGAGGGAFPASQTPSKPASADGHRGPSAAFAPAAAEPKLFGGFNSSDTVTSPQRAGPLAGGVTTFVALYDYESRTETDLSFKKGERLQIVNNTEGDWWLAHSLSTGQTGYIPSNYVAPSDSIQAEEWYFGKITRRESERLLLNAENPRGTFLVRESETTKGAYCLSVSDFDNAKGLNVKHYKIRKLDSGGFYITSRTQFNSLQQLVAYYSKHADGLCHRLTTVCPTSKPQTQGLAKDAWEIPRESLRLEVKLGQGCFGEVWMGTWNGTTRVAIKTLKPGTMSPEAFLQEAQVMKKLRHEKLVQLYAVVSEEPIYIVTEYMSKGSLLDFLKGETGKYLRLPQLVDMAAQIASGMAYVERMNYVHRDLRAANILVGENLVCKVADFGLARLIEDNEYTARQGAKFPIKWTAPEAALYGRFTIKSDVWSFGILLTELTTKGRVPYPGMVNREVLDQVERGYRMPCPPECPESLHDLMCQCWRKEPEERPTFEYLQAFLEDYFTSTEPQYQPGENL

| IC50 (ABL1 native) | inhibition at 0.5 µM (ABL1 native) | IC50 (ABL1 T315I) | inhibition at 0.5 µM (ABL1 T315I) | inhibition at 0.5 µM (BRK) | IC50 (BTK) | inhibition at 0.5 µM (BTK) | inhibition at 0.5 µM (CSK) | inhibition at 0.5 µM (Fyn A) | inhibition at 0.5 µM (Lck) | inhibition at 0.5 µM (Src) | IC50 (Lyn B) | inhibition at 0.5 µM (Lyn B) | Compound | IC50 (HCT 116 p53+/+) | IC50 (HCT 116 p53-/-) | IC50 (K562) | IC50 (MCF-7) | IC50 (PANC-1) | IC50 (U-251) | D-2-HG level after treatment (decrease to) [1] | other results |
| --- | --- | --- | --- | --- | --- | --- | --- | --- | --- | --- | --- | --- | --- | --- | --- | --- | --- | --- | --- | --- | --- |
|  |  |  |  |  |  |  |  |  |  |  |  |  | CNC(=O)c1ccccc1Sc1ccc2c(/C=C/c3ccccn3)n[nH]c2c1 [Axitinib, axitinib, reference compound] |  |  |  |  |  |  |  | reduced level of 2-hydroxyglutarate ([1]; axitinib 0.5 μM): 46% |
|  |  |  |  |  |  |  |  |  |  |  |  |  | NC(=O)c1cccc(-c2cc(Nc3ccc(OC(F)(F)F)cc3)ncn2)c1 [GNF-2] |  |  |  |  |  |  |  | level of activity towards recombinant ABL1 protein (ABL1 recombinant protein): ~ 1 μM |
|  |  |  |  |  |  |  |  |  |  |  |  |  | C[C@H](O)c1cccc(NC(=O)c2nn(Cc3ccc(F)cc3)c3c2CN(C(=O)c2ccc[nH]2)C[C@H]3C)c1 [GSK-321] |  |  |  |  |  |  |  | inhibitory activity against IDH1 R132H in biochemical tests (IDH1 R132H): 4.6 nM |
| 0.934 µM | 42.8 ± 8.46% | 5.02 µM | 29.3 ± 7.43% | 22.6 ± 0.94% | 4.94 µM | 32.3 ± 7.43% | 38.4 ± 6.15% | 29.9 ± 4.29% | 34.7 ± 2.51% | 0% | 5 µM | 0% | CCCCc1ccc(NS(=O)(=O)c2ccc(C)c(C(=O)N3CCN(c4ccccc4O)CC3)c2)cc1 [TOS-1, N-(4-butylphenyl)-3-[4-(2-hydroxyphenyl)piperazine-1-carbonyl]-4-methylbenzene-1-sulfonamide] | 24.7 ± 0.32 µM | 27.83 ± 0.17 µM | 12.7 ± 3.2 µM | 18.1 ± 1 µM | 25.2 ± 3.38 µM | 27.59 ± 0.17 µM | 24% | IC50 (Fyn A): 4.15 µM; Fa (fraction affected), combination with axitinib (ABL1 enzyme; TOS-1 0.375 µM + axitinib 0.125 µM): 0.3787; Fa (fraction affected), combination with axitinib (ABL1 enzyme; TOS-1 0.625 µM + axitinib 0.25 µM): 0.4837; Fa (fraction affected), combination with axitinib (ABL1 enzyme; TOS-1 1.25 µM + axitinib 0.5 µM): 0.7204; Fa (fraction affected), combination with axitinib (ABL1 enzyme; TOS-1 2.5 µM + axitinib 1 µM): 0.8412; Combination index [CI] (ABL1 enzyme): 0.5; Fa (fraction affected), single agent (ABL1 enzyme; dose 0.375 µM): 0.1126; Fa (fraction affected), single agent (ABL1 enzyme; dose 0.625 µM): 0.4149; Fa (fraction affected), single agent (ABL1 enzyme; dose 1.25 µM): 0.559; Fa (fraction affected), single agent (ABL1 enzyme; dose 2.5 µM): 0.5863 |
| 0.401 µM | 59.2 ± 8.12% | > 10 µM | 26.1 ± 6.61% | 0% | 0.522 µM | 50.9 ± 1.87% | 9.66 ± 3.59% | 19.6 ± 2.78% | 0% | 13.8 ± 4.23% | 5 µM | 0% | CCCCc1ccc(NS(=O)(=O)c2ccc(C)c(C(=O)N3CCN(c4ccccc4OCCF)CC3)c2)cc1 [TOS-2, N-(4-butylphenyl)-3-{4-[2-(2-fluoroethoxy)phenyl]piperazine-1-carbonyl}-4-methylbenzene-1-sulfonamide] | 24.4 ± 0.82 µM | 28.9 ± 1.07 µM | 17.3 ± 2.23 µM | 15.6 ± 1.35 µM | 18.9 ± 0.42 µM | > 30 µM | 48% | Fa (fraction affected), combination with axitinib (ABL1 enzyme; TOS-2 0.0625 µM + axitinib 0.0625 µM): 0.354; Fa (fraction affected), combination with axitinib (ABL1 enzyme; TOS-2 0.125 µM + axitinib 0.125 µM): 0.4632; Fa (fraction affected), combination with axitinib (ABL1 enzyme; TOS-2 0.25 µM + axitinib 0.25 µM): 0.6215; Fa (fraction affected), combination with axitinib (ABL1 enzyme; TOS-2 0.5 µM + axitinib 0.5 µM): 0.6852; Fa (fraction affected), combination with axitinib (ABL1 enzyme; TOS-2 1 µM + axitinib 1 µM): 0.8101; Combination index [CI] (ABL1 enzyme): 0.75; Fa (fraction affected), single agent (ABL1 enzyme; dose 0.0625 µM): 0.07245; Fa (fraction affected), single agent (ABL1 enzyme; dose 0.125 µM): 0.2475; Fa (fraction affected), single agent (ABL1 enzyme; dose 0.25 µM): 0.3737; Fa (fraction affected), single agent (ABL1 enzyme; dose 0.5 µM): 0.518; Fa (fraction affected), single agent (ABL1 enzyme; dose 1 µM): 0.638 |
|  |  |  |  |  |  |  |  |  |  |  |  |  | N#Cc1ccnc(N2C(=O)CC[C@H]2C(=O)N(c2cncc(F)c2)[C@H](C(=O)NC2CC(F)(F)C2)c2ccccc2Cl)c1 [ivosidenib] |  |  |  |  |  |  |  | IC50 (wild-type IDH1): 0.024 µM; IC50 (IDH1 R132H; read-out: IC50 IDH1 mutant): 0.012 µM |
